Values of other authors, collected in paper PMC5601361, “Targeting the Receptor for Advanced Glycation Endproducts (RAGE): A Medicinal Chemistry Perspective” (Journal of Medicinal Chemistry, 2017).
pIC50, pKd: −log10 of the molar value. Entries after “also recorded” stand apart in the source; their conditions may differ. Where two headings read alike, the source gives them in different places. One block for each molecule: values may come before it.

Key:
HT22 cells = settings: 10 μM
[1] = test system: human RAGE-Aβ1–42 interaction; set-up: method as in PMID 26051601; settings: in vitro
APPswe/PS1 mice = settings: po 50 mg/kg every 2 days for 4 weeks; 50 mg/kg
human sRAGE [2] = settings: VC1 domain; ITC; read-out: affinity for RAGE (Kd)
human sRAGE [3] = settings: SPR
human sRAGE [4] = molecular target: human sRAGE; set-up: method as in PMID 17660747; settings: V domain, SPR
human sRAGE [5] = molecular target: human sRAGE; set-up: method as in PMID 17508727; settings: SPR
[6] = test system: RAGE-overexpressing brain endothelial cells monolayer; set-up: method as in PMID 23140885; settings: artificial BBB system
human RAGE-Aβ = test system: human RAGE-Aβ; set-up: method as in PMID 23140885
CHO cells = test system: CHO cells; set-up: method as in PMID 23140885; settings: in vitro

Molecule: CC(C)(C)OC(=O)N1CCN(CCCOc2ccc(-c3nc4ccc(Oc5ccc(Cl)cc5)cc4o3)cc2)CC1 [Compound 8]
toxicity in HT22 cells (HT22 cells): not toxic
RAGE-Aβ1–42 binding [1]: • RAGE-Aβ1–42 binding inhibition (in vitro)
amyloid deposition / Aβ and amyloid plaque levels in the brain (APPswe/PS1 mice): did not significantly affect

pKd (human sRAGE [2]): 5.03 to 5.49
pKd (human sRAGE [3]; V domain, read-out: Kd1): 6.30
pKd (human sRAGE [3]; V domain, read-out: Kd2): 6.22
pKd (human sRAGE [3]; VC1 domain, read-out: Kd1): 7.96
pKd (human sRAGE [3]; VC1 domain, read-out: Kd2): 6.70
pKd (human sRAGE [4]; S100B dimer, read-out: Kd): 5.08
pKd (human sRAGE [4]; S100B tetramer, read-out: Kd1): 5.96
pKd (human sRAGE [4]; S100B tetramer, read-out: Kd2): 7.38
pKd (human sRAGE [5]; V domain, read-out: Kd1): 6.26
pKd (human sRAGE [5]; V domain, read-out: Kd2): 6.33
pKd (human sRAGE [5]; VC1 domain, read-out: Kd1): 7.96
pKd (human sRAGE [5]; VC1 domain, read-out: Kd2): 6.61
Molecule: S100B: Ca2+-binding S100/calgranulin family protein, endogenous RAGE ligand [Compound S100B]

RAGE-Aβ binding (human RAGE-Aβ): • RAGE-Aβ binding inhibition
pIC50 (human RAGE-Aβ; ELISA on human RAGE-Aβ (RAGE-Aβ1–42 interaction)): 5.92
Molecule: CCCCc1sc(-c2ccc(OCCN3CCN(C)CC3)cc2)nc1-c1ccc(Oc2ccc(Cl)cc2)cc1 [Compound 2]
Aβ1–42 influx / Aβ transport [6]: Aβ transport inhibition; also recorded: • inhibition of Aβ1–42 influx in the brain
Aβ1–42-associated NF-κB activation (CHO cells): • inhibition of Aβ1–42-associated NF-κB activation (in vitro)
